Measured values as given in patent US20260308222A1, “STABILIZED ANALOGUES OF CALCITONIN” (YISSUM RESEARCH DEVELOPMENT COMPANY OF THE HEBREW …, priority 2024, published 2026).
Values joined by “and” are separate entries in the source; they are usually repeats but may differ in a detail not shown here. Equal entries are not always repeated. Bridge positions count the residues as written; N and C are the ends. Square brackets hold non-standard residues; d marks the D form. Peptide text beside a SMILES is read from it. Sec = N[C@@H](C[SeH])C(=O)O

Assays:
[1] = Circular dichroism analysis, percent α-helicity; type: physicochemical; details: 10 mM phosphate buffer pH 7, SDS; for % α helicity: 10-30 μM peptide, 2 h folding
Protocol: Following synthesis of the calcitonin analogues, the helicity of the calcitonin analogues was assessed by circular dichroism analysis. Far ultraviolet spectra (FIG. 6) were obtained from 195-260 nm on J-180 spectropolarimeter (Jasco) using 10-30 μM of sCT and all analogues in 10 mM phosphate buffer pH 7 and in the presence of sodium dodecyl sulphate (SDS), which were left for 2 h to allow folding. Each spectrum represents the average of 3 scans, and the mean residue ellipticity (θMRE) was calculated according to the following equation: […]
Percentage helicity of peptides as presented in Table 2 was calculated according to the following equation (Sommese, et al. 2010): […]
where n is the number of amino acids in the peptide.

[2] = target: T1, calcitonin receptor (CTR) (Homo sapiens, UniProt P30988); test: Ca^2+ concentration assay, HEK293 CALCR-HiTSeeker cell line; type: cell-based; parameters: expressed in transfected cells; details: HEK293 CALCR-HiTSeeker cells
T1 sequence (P30988 25-474): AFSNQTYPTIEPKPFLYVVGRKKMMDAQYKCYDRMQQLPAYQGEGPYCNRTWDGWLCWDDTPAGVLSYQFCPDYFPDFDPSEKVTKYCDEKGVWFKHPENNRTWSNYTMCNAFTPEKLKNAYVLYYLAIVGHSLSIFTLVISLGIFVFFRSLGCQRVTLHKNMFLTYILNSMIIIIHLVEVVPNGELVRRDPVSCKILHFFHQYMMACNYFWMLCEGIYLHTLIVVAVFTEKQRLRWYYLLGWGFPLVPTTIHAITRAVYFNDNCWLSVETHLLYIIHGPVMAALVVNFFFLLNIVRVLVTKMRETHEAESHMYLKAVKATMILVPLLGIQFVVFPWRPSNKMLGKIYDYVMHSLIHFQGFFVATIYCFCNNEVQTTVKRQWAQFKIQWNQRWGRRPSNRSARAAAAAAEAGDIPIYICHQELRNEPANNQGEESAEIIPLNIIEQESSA

[3] = target: T1, calcitonin receptor (CTR); test: cAMP accumulation assay, U2OS Red cAMPNomad-CALCR cell line; type: cell-based; parameters: expressed in transfected cells; host or cells: U2OS Red cAMPNomad-CALCR; details: U2OS Red cAMPNomad-CALCR cells; for EC50: overnight incubation
[4] = Degradation in simulated gastric fluid (SGF); type: in vitro ADME; details: for SGF t1/2: pepsin 0.2 mg/mL stock; for SGF t1/2 / half-life in SGF relative to sCT / half-life: pH 1.3, 37 °C; for half-life in SGF relative to sCT: pepsin; for half-life: simulated gastric fluid, pH 1.3, pepsin 0.2 mg/mL stock, read-out: SGF t1/2
Protocol: sCT and its analogues were evaluated for their degradation in simulated gastric fluid (SGF). The stock solution of each analogue was prepared by dissolving 2 mg of the peptide in 1 mL water. The stock solution of pepsin enzyme was prepared by dissolving 5 mg of pepsin in 5 mL of 10 mM HCl (1 mg/mL), and then was diluted to a 0.2 mg/mL with 10 mM HCl. 7 For degradation, 34 μL of pepsin (0.2 mg/mL) was added to 100 μL of peptide (2 mg/mL) at pH 1.3 and the reaction incubated at 37° C. To monitor the degradation, 10 μL of the reaction aliquots were taken and quenched with 10 μL of 10 mM NaOH every 30 min for several hours and analyzed by HPLC using XSelect C18 column ([…], 130 A, 4.6×150 mm) with a gradient of 5-70% of 0.1% TFA in MeCN over 20 min with monitoring at 220 nm.

[5] = Degradation in simulated intestinal fluid (SIF); details: for stability in SIF compared to sCT: pancreatin; for half-life: simulated intestinal fluid, pH 6.8, SIF t1/2, pancreatin 2 mg/mL stock

In the case of `CC(C)C[C@@H]1NC(=O)[C@@H](NC(=O)CNC(=O)[C@H](CC(C)C)NC(=O)[C@@H](NC(=O)[C@@H]2CSSC[C@H](N)C(=O)N[C@@H](CO)C(=O)N[C@@H](CC(N)=O)C(=O)N[C@@H](CC(C)C)C(=O)N[C@@H](CO)C(=O)N[C@@H]([C@@H](C)O)C(=O)N2)C(C)C)CCCCNCc2cc(ccc2O)C[C@@H](C(=O)N2CCC[C@H]2C(=O)N[C@@H](CCCNC(=N)N)C(=O)N[C@H](C(=O)N[C@@H](CC(N)=O)C(=O)N[C@H](C(=O)NCC(=O)N[C@@H](CO)C(=O)NCC(=O)N[C@H](C(=O)N2CCC[C@H]2C(N)=O)[C@@H](C)O)[C@@H](C)O)[C@@H](C)O)NC(=O)[C@H]([C@@H](C)O)NC(=O)[C@H](CCC(N)=O)NC(=O)[C@H](CC(C)C)NC(=O)[C@H](CCCCN)NC(=O)[C@H](Cc2c[nH]cn2)NC(=O)[C@H](CC(C)C)NC(=O)[C@H](CCC(=O)O)NC(=O)[C@H](CCC(N)=O)NC(=O)[C@H](CO)NC1=O` [KaY-1], the “helicity retained following cyclization” value [1] is reported as “retain the high degree of helicity”, the “% α helicity” value [1] is reported as 93.7% and the “Ca^2+ EC50 / efficacy” value [2] is reported as “similar”. The EC50 ([2]; read-out: Ca^2+ EC50) was 166 ± 34.8 nM, the “cAMP EC50 / potency” value [3] was “EC50 in the nanomolar range” and the EC50 ([3]; read-out: cAMP EC50) was 47.6 ± 24.1 nM. For the same compound, the “SGF t1/2” value [4] was 191.2 ± 66.1 min, the “half-life in SGF relative to sCT” value ([4]; vs sCT) was “five-fold longer half-life” and the half-life [4] was 190 min. For the same compound, the “stability in SIF compared to sCT” value ([5]; pH 6.8, 37 °C, vs sCT) was “did not exhibit any improvements” and the half-life ([5]; pH 6.8, 37 °C) was 7.1 ± 0.7 min.

For `CC(C)C[C@H](NC(=O)[C@H](CCCCN)NC(=O)CNC(=O)[C@H](CC(C)C)NC(=O)[C@@H](NC(=O)[C@@H]1CSSC[C@H](N)C(=O)N[C@@H](CO)C(=O)N[C@@H](CC(N)=O)C(=O)N[C@@H](CC(C)C)C(=O)N[C@@H](CO)C(=O)N[C@@H]([C@@H](C)O)C(=O)N1)C(C)C)C(=O)N[C@@H](CO)C(=O)N[C@@H](CCC(N)=O)C(=O)N[C@@H](CCC(=O)O)C(=O)N[C@@H](CC(C)C)C(=O)N[C@@H](Cc1c[nH]cn1)C(=O)N[C@H]1CCCCNCc2cc(ccc2O)C[C@@H](C(=O)N2CCC[C@H]2C(=O)N[C@@H](CCCNC(=N)N)C(=O)N[C@H](C(=O)N[C@@H](CC(N)=O)C(=O)N[C@H](C(=O)NCC(=O)N[C@@H](CO)C(=O)NCC(=O)N[C@H](C(=O)N2CCC[C@H]2C(N)=O)[C@@H](C)O)[C@@H](C)O)[C@@H](C)O)NC(=O)[C@H]([C@@H](C)O)NC(=O)[C@H](CCC(N)=O)NC(=O)[C@H](CC(C)C)NC1=O` [KaY-2], the “% α helicity” value [1] was 56.2% and the half-life [4] was 34.5 ± 0.3 min.

For `CC(C)C[C@@H]1NC(=O)[C@@H](NC(=O)CNC(=O)[C@H](CC(C)C)NC(=O)[C@@H](NC(=O)[C@@H]2CSSC[C@H](N)C(=O)N[C@@H](CO)C(=O)N[C@@H](CC(N)=O)C(=O)N[C@@H](CC(C)C)C(=O)N[C@@H](CO)C(=O)N[C@@H]([C@@H](C)O)C(=O)N2)C(C)C)CCCCNCc2cc(ccc2O)C[C@@H](C(=O)N2CCC[C@H]2C(=O)N[C@@H](CCC(N)=O)C(=O)N[C@H](C(=O)N[C@@H](CC(N)=O)C(=O)N[C@H](C(=O)NCC(=O)N[C@@H](CO)C(=O)NCC(=O)N[C@H](C(=O)N2CCC[C@H]2C(N)=O)[C@@H](C)O)[C@@H](C)O)[C@@H](C)O)NC(=O)[C@H]([C@@H](C)O)NC(=O)[C@H](CCC(N)=O)NC(=O)[C@H](CC(C)C)NC(=O)[C@H](CCCCN)NC(=O)[C@H](Cc2c[nH]cn2)NC(=O)[C@H](CC(C)C)NC(=O)[C@H](CCC(=O)O)NC(=O)[C@H](CCC(N)=O)NC(=O)[C@H](CO)NC1=O` [KaY-1(R24Q)], the EC50 ([2]; read-out: Ca^2+ EC50) was 216 ± 43.8 nM, the EC50 ([3]; read-out: cAMP EC50) was 2.67 nM and 2.7 nM and the “SGF t1/2” value [4] was 170.6 ± 32.2 min. For the same compound, the “half-life in SGF relative to sCT” value ([4]; vs sCT) was “five-fold longer half-life”, the half-life [4] was 170 min and the “improvement in stability in simulated gastric fluid over sCT” value ([4]; vs sCT, first figure of sentence) was 5 fold. The “SIF t1/2” value ([5]; pancreatin 2 mg/mL stock, pH 6.8, 37 °C) was 41.9 ± 6.1 min, the “stability in SIF compared to sCT” value ([5]; pH 6.8, 37 °C, vs sCT) was “six-fold enhancement in stability compared to sCT” and the half-life ([5]; pH 6.8, 37 °C) was 42 min. For the same compound, the “improvement in stability in simulated gastric fluid” value ([5]; vs sCT, second figure of sentence) was 6 fold.

With `CC(C)C[C@H](NC(=O)[C@H](CCCCN)NC(=O)CNC(=O)[C@H](CC(C)C)NC(=O)[C@@H](NC(=O)[C@@H]1CSCSC[C@H](N)C(=O)N[C@@H](CO)C(=O)N[C@@H](CC(N)=O)C(=O)N[C@@H](CC(C)C)C(=O)N[C@@H](CO)C(=O)N[C@@H]([C@@H](C)O)C(=O)N1)C(C)C)C(=O)N[C@@H](CO)C(=O)N[C@@H](CCC(N)=O)C(=O)N[C@@H](CCC(=O)O)C(=O)N[C@@H](CC(C)C)C(=O)N[C@@H](Cc1c[nH]cn1)C(=O)N[C@@H](CCCCN)C(=O)N[C@@H](CC(C)C)C(=O)N[C@@H](CCC(N)=O)C(=O)N[C@H](C(=O)N[C@@H](Cc1ccc(O)cc1)C(=O)N1CCC[C@H]1C(=O)N[C@@H](CCCNC(=N)N)C(=O)N[C@H](C(=O)N[C@@H](CC(N)=O)C(=O)N[C@H](C(=O)NCC(=O)N[C@@H](CO)C(=O)NCC(=O)N[C@H](C(=O)N1CCC[C@H]1C(N)=O)[C@@H](C)O)[C@@H](C)O)[C@@H](C)O)[C@@H](C)O` [MT-CT] the “helicity retained following cyclization” value [1] was “retain the high degree of helicity”, the “% α helicity” value [1] was 98.5% and the EC50 ([2]; read-out: Ca^2+ EC50) was 7300 ± 700 nM. For the same compound, the EC50 ([2]; read-out: Ca^2+ EC50 (bound)) was > 1000 nM, the EC50 ([3]; read-out: cAMP EC50) was 1670 ± 60 nM and the EC50 ([3]; read-out: cAMP EC50 (bound)) was > 1000 nM. The half-life [4] was 33.5 ± 0.2 min.

For `CC(C)C[C@H](NC(=O)[C@H](CCCCN)NC(=O)CNC(=O)[C@H](CC(C)C)NC(=O)[C@@H](NC(=O)[C@@H]1CSSC[C@H](N)C(=O)N[C@@H](CO)C(=O)N[C@@H](CC(N)=O)C(=O)N[C@@H](CC(C)C)C(=O)N[C@@H](CO)C(=O)N[C@@H]([C@@H](C)O)C(=O)N1)C(C)C)C(=O)N[C@@H](CO)C(=O)N[C@@H](CCC(N)=O)C(=O)N[C@H]1CCC(=O)NCCCC[C@@H](C(=O)N[C@@H](CC(C)C)C(=O)N[C@@H](CCC(N)=O)C(=O)N[C@H](C(=O)N[C@@H](Cc2ccc(O)cc2)C(=O)N2CCC[C@H]2C(=O)N[C@@H](CCCNC(=N)N)C(=O)N[C@H](C(=O)N[C@@H](CC(N)=O)C(=O)N[C@H](C(=O)NCC(=O)N[C@@H](CO)C(=O)NCC(=O)N[C@H](C(=O)N2CCC[C@H]2C(N)=O)[C@@H](C)O)[C@@H](C)O)[C@@H](C)O)[C@@H](C)O)NC(=O)[C@H](Cc2c[nH]cn2)NC(=O)[C@H](CC(C)C)NC1=O` [CT(E15-K18)], the “% α helicity” value [1] was 62.9% and the half-life [4] was 47.3 ± 1.9 min.

With `CC(C)C[C@H](NC(=O)[C@H](CCCCN)NC(=O)CNC(=O)[C@H](CC(C)C)NC(=O)[C@@H](NC(=O)[C@@H]1C[Se][Se]C[C@H](N)C(=O)N[C@@H](CO)C(=O)N[C@@H](CC(N)=O)C(=O)N[C@@H](CC(C)C)C(=O)N[C@@H](CO)C(=O)N[C@@H]([C@@H](C)O)C(=O)N1)C(C)C)C(=O)N[C@@H](CO)C(=O)N[C@@H](CCC(N)=O)C(=O)N[C@@H](CCC(=O)O)C(=O)N[C@@H](CC(C)C)C(=O)N[C@@H](Cc1c[nH]cn1)C(=O)N[C@@H](CCCCN)C(=O)N[C@@H](CC(C)C)C(=O)N[C@@H](CCC(N)=O)C(=O)N[C@H](C(=O)N[C@@H](Cc1ccc(O)cc1)C(=O)N1CCC[C@H]1C(=O)N[C@@H](CCCNC(=N)N)C(=O)N[C@H](C(=O)N[C@@H](CC(N)=O)C(=O)N[C@H](C(=O)NCC(=O)N[C@@H](CO)C(=O)NCC(=O)N[C@H](C(=O)N1CCC[C@H]1C(N)=O)[C@@H](C)O)[C@@H](C)O)[C@@H](C)O)[C@@H](C)O` [Se-CT] (H-[Sec]SNLST[Sec]VLGKLSQELHKLQTYPRTNTGSGTP-NH2; diselenide 1-7) the “helicity retained following cyclization” value [1] was “retain the high degree of helicity”, the “% α helicity” value [1] was 99.2% and the EC50 ([2]; read-out: Ca^2+ EC50) was 113 ± 18.3 nM. The “cAMP EC50 / potency” value [3] was “EC50 in the nanomolar range”, the EC50 ([3]; read-out: cAMP EC50) was 82.7 ± 16.5 nM and the half-life [4] was 32.6 ± 0.5 min.
